Patent US6737383B1, “Herbicidal oxadiazolidines” (priority 1999, dated 2004)

Assays:
[1] = tested on: bamyardgrass; test: Test B flood test barnyardgrass; type: in vivo, Echinochloa crus-galli
Method in brief: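 Flood test on plants grown to the 2-leaf stage; treated plants kept in greenhouse twelve to sixteen days, then visually rated against controls on a 0 (no effect) to 10 (complete control) scale.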

[2] = tested on: rice; test: Test B flood test rice; type: in vivo, Oryza sativa
Description: (§1) At the same time, these crop and weed species were also treated with postemergence applications of test chemicals formulated in the same manner. Plants ranged in height from 2 to 18 cm (1- to 4-leaf stage) for postemergence treatments. Plant species in the flood test consisted of rice (Oryza sativa), smallflower flatsedge (Cyperus difformis), duck salad (Heteranthera limosa) and bamyardgrass (Echinochloa crus-galli) grown to the 2-leaf stage for testing. Treated plants and controls were maintained in a greenhouse for twelve to sixteen days, after which all species were compared to controls and visually evaluated. Plant response ratings, summarized in Table B, are based on a scale of 0 to 10 where 0 is no effect and 10 is complete control. A dash (−) response means no test result.

[3] = tested on: smallflower flatsedge; test: Test B flood test smallflower flatsedge; type: in vivo, Cyperus difformis
Description: as §1

[4] = tested on: duck salad; test: Test B flood test duck salad; type: in vivo, Heteranthera limosa
Description: as §1

[5] = Rate 62 g/ha, flood test species, Pre-emergence, visual evaluation after twelve to sixteen days
[6] = Rate 125 g/ha, under heading Pre-emergence, flood test species, visual evaluation after twelve to sixteen days
[7] = Rate 250 g/ha, Pre-emergence (flood test species), scale 0 to 10, 0 is no effect, 10 is complete control
[8] = Rate 500 g/ha, Pre-emergence section of Table B, 0 to 10 scale (0 no effect, 10 complete control)

C=C(C(=O)OC)C(C)n1c(=O)on(C(=O)N(c2ccccc2)C(C)C)c1=O (stereo not shown) [Compound 651]
0: Plant response rating, Barnyardgrass (0 to 10 scale, 0 is no effect, 10 is complete control) [1, 5] | Barnyardgrass plant response rating (0 to 10 scale, 0 is no effect, 10 is complete control) [1, 6] | Barnyardgrass plant response rating [1, 7] | Barnyardgrass plant response rating [1, 8] | Plant response rating, Rice (0 to 10 scale, 0 is no effect, 10 is complete control) [2, 5] | Rice plant response rating (0 to 10 scale, 0 is no effect, 10 is complete control) [2, 6] | Rice plant response rating [2, 7] | Rice plant response rating [2, 8] | Plant response rating, S. Flatsedge (0 to 10 scale, 0 is no effect, 10 is complete control) [3, 5] | S. Flatsedge plant response rating (0 to 10 scale, 0 is no effect, 10 is complete control) [3, 6] | S. Flatsedge plant response rating [3, 7] | S. Flatsedge plant response rating [3, 8] | Plant response rating, Ducksalad (0 to 10 scale, 0 is no effect, 10 is complete control) [4, 5] | Ducksalad plant response rating (0 to 10 scale, 0 is no effect, 10 is complete control) [4, 6] | Ducksalad plant response rating [4, 7] | Ducksalad plant response rating [4, 8]
